Results: US9051300B2, “Herbicides” (Syngenta Limited, priority 2009, dated 2015)

These molecules were tested on Winter Wheat variety 'Hereward' (assay: Crop damage to winter wheat, post-emergence spray). Conditions: 250 g/ha, no safener, evaluated after 13 days, 100=total damage to plant, 0=no damage.
Assay type: in vivo
Experimental: Seeds of the Winter Wheat variety ‘Hereward’ were sown in standard soil in pots. After 8 days cultivation under controlled conditions in a glasshouse (at 24/16° C., day/night; 14 hours light; 65% humidity), the plants were sprayed post-emergence with an aqueous spray solution derived from the formulation of the technical active ingredient in acetone/water (50:50) solution containing 0.5% Tween 20 (polyoxyethylene sorbitan monolaurate, CAS RN 9005-64-5). The test plants were then grown in a glasshouse under controlled conditions in a glasshouse (at 24/16° C., day/night; 14 hours light; 65% humidity) and watered twice daily. After 13 days for pre and post-emergence, the test was evaluated (100=total damage to plant; 0=no damage to plant).

| SMILES | Winter Wheat (Hereward) (damage to plant) |
| --- | --- |
| Cc1sc(-c2ccc(C(C)C)cc2)nc1C1C(=O)C/C(=C\C2CCOCC2)C1=O (stereo not shown) [Compound A1] | 20 |
| Cc1sc(-c2ccc(Cl)cc2)nc1C1C(=O)CC(Cc2ccc(F)cn2)C1=O (stereo not shown) [Compound A12] | 70 |
| Cc1sc(-c2ccc(Cl)cc2)nc1C1C(=O)C/C(=C\C2CCOCC2)C1=O (stereo not shown) [Compound A24] | 70 |
| Cc1cc(-c2ccc(Cl)cc2)nn1C1C(=O)CC(Cc2ccc(F)cn2)C1=O (stereo not shown) [Compound A20] | 70 |

These molecules were tested on Lolium perenne (LOLPE) (assay: Post-emergence herbicidal activity, glasshouse pot test). Conditions: 312 h, evaluated after 13 days, 100=total damage to plant, 0=no damage.
Assay type: in vivo
Experimental: (§1) Seeds of a variety of test species are sown in standard soil in pots. After cultivation for one day (pre-emergence) or after 8 days cultivation (post-emergence) under controlled conditions in a glasshouse (at 24/16° C., day/night; 14 hours light; 65% humidity), the plants are sprayed with an aqueous spray solution derived from the formulation of the technical active ingredient in acetone/water (50:50) solution containing 0.5% Tween 20 (polyoxyethylene sorbitan monolaurate, CAS RN 9005-64-5). The test plants are then grown in a glasshouse under controlled conditions in a glasshouse (at 24/16° C., day/night; 14 hours light; 65% humidity) and watered twice daily. After 13 days for pre and post-emergence, the test is evaluated (100=total damage to plant; 0=no damage to plant). Lolium perenne (LOLPE), Alopecurus myosuroides (ALOMY), Echinochloa crus-galli (ECHCG), Avena fatua (AVEFA) Post-Emergence Activity

| SMILES | pest or weed control at 250 g/ha [%] |
| --- | --- |
| Cc1sc(-c2ccc(C(C)C)cc2)nc1C1C(=O)C/C(=C\C2CCOCC2)C1=O (stereo not shown) [Compound A1] | 0 |
| Cc1sc(-c2ccc(Cl)cc2)nc1C1C(=O)CC(Cc2ccc(F)cn2)C1=O (stereo not shown) [Compound A12] | 100 |
| Cc1sc(-c2ccc(Cl)cc2)nc1C1C(=O)C/C(=C\C2CCOCC2)C1=O (stereo not shown) [Compound A24] | 90 |
| Cc1cc(-c2ccc(Cl)cc2)nn1C1C(=O)CC(Cc2ccc(F)cn2)C1=O (stereo not shown) [Compound A20] | 90 |

The molecules below were run on Echinochloa crus-galli (ECHCG) in the same assay as above. Conditions: 312 h, evaluated after 13 days, 100=total damage to plant, 0=no damage.
Assay type: in vivo
Experimental: as §1

| SMILES | pest or weed control at 250 g/ha [%] |
| --- | --- |
| Cc1sc(-c2ccc(C(C)C)cc2)nc1C1C(=O)C/C(=C\C2CCOCC2)C1=O (stereo not shown) [Compound A1] | 10 |
| Cc1sc(-c2ccc(Cl)cc2)nc1C1C(=O)CC(Cc2ccc(F)cn2)C1=O (stereo not shown) [Compound A12] | 100 |
| Cc1sc(-c2ccc(Cl)cc2)nc1C1C(=O)C/C(=C\C2CCOCC2)C1=O (stereo not shown) [Compound A24] | 100 |
| Cc1cc(-c2ccc(Cl)cc2)nn1C1C(=O)CC(Cc2ccc(F)cn2)C1=O (stereo not shown) [Compound A20] | 100 |

Each molecule was assayed on Avena fatua (AVEFA) in the same assay as above. Conditions: 312 h, evaluated after 13 days, 100=total damage to plant, 0=no damage.
Assay type: in vivo
Experimental: as §1

| SMILES | pest or weed control at 250 g/ha [%] |
| --- | --- |
| Cc1sc(-c2ccc(C(C)C)cc2)nc1C1C(=O)C/C(=C\C2CCOCC2)C1=O (stereo not shown) [Compound A1] | 0 |
| Cc1sc(-c2ccc(Cl)cc2)nc1C1C(=O)CC(Cc2ccc(F)cn2)C1=O (stereo not shown) [Compound A12] | 90 |
| Cc1sc(-c2ccc(Cl)cc2)nc1C1C(=O)C/C(=C\C2CCOCC2)C1=O (stereo not shown) [Compound A24] | 90 |
| Cc1cc(-c2ccc(Cl)cc2)nn1C1C(=O)CC(Cc2ccc(F)cn2)C1=O (stereo not shown) [Compound A20] | 90 |

What follows are molecules tested on Alopecurus myosuroides (ALOMY) in the same assay as above. Conditions: 312 h, evaluated after 13 days, 100=total damage to plant, 0=no damage.
Assay type: in vivo
Experimental: as §1

| SMILES | pest or weed control at 250 g/ha [%] |
| --- | --- |
| Cc1sc(-c2ccc(C(C)C)cc2)nc1C1C(=O)C/C(=C\C2CCOCC2)C1=O (stereo not shown) [Compound A1] | 10 |
| Cc1sc(-c2ccc(Cl)cc2)nc1C1C(=O)CC(Cc2ccc(F)cn2)C1=O (stereo not shown) [Compound A12] | 100 |
| Cc1sc(-c2ccc(Cl)cc2)nc1C1C(=O)C/C(=C\C2CCOCC2)C1=O (stereo not shown) [Compound A24] | 100 |
| Cc1cc(-c2ccc(Cl)cc2)nn1C1C(=O)CC(Cc2ccc(F)cn2)C1=O (stereo not shown) [Compound A20] | 80 |

The molecules below were run on Winter Wheat variety 'Hereward' (assay: Crop damage to winter wheat seed treated with safener cloquintocet mexyl, post-emergence spray). Conditions: 250 g/ha, seed treated with cloquintocet mexyl 0.5 g/kg seed, evaluated after 13 days, 100=total damage, 0=no damage.
Assay type: in vivo
Experimental: Seeds of the Winter Wheat variety ‘Hereward’ were seed treated with a wettable powder formulation of the cereal herbicide safener, cloquintocet mexyl, at a rate of 0.5 grams per kilogram of dry seed prior to the initiation of glasshouse testing. One seed was sown per 1.5 inch plastic pot into a sandy loam soil at a depth of 1 cm, 8 days prior to application of the test compounds and was watered and grown under controlled conditions in a glasshouse (at 24/16° C., day/night; 14 hours light; 65% humidity). The plants were sprayed post-emergence with an aqueous spray solution derived from the formulation of the technical active ingredient in acetone/water (50:50) solution containing 0.5% Tween 20 (polyoxyethylene sorbitan monolaurate, CAS RN 9005-64-5). The test plants were then grown in a glasshouse under controlled conditions in a glasshouse (at 24/16° C., day/night; 14 hours light; 65% humidity) and watered twice daily. After 13 days for pre and post-emergence, the test was evaluated (100=total damage to plant; 0=no damage to plant).

| SMILES | Winter Wheat (Hereward) + cloquintocet mexyl (damage to plant) |
| --- | --- |
| Cc1sc(-c2ccc(C(C)C)cc2)nc1C1C(=O)C/C(=C\C2CCOCC2)C1=O (stereo not shown) [Compound A1] | 0 |
| Cc1sc(-c2ccc(Cl)cc2)nc1C1C(=O)CC(Cc2ccc(F)cn2)C1=O (stereo not shown) [Compound A12] | 80 |
| Cc1sc(-c2ccc(Cl)cc2)nc1C1C(=O)C/C(=C\C2CCOCC2)C1=O (stereo not shown) [Compound A24] | 0 |
| Cc1cc(-c2ccc(Cl)cc2)nn1C1C(=O)CC(Cc2ccc(F)cn2)C1=O (stereo not shown) [Compound A20] | 70 |

These molecules were tested on Lolium perenne (LOLPE) (assay: Pre-emergence herbicidal activity, glasshouse pot test). Conditions: rate not printed (columns shifted), evaluated after 13 days, 100=total damage to plant, 0=no damage.
Assay type: in vivo
Experimental: as §1, with “Pre-Emergence” for “Post-Emergence”

| SMILES | Pre-Emergence Activity LOLPE (damage to plant) |
| --- | --- |
| Cc1sc(-c2ccc(C(C)C)cc2)nc1C1C(=O)C/C(=C\C2CCOCC2)C1=O (stereo not shown) [Compound A1] | 10 |
| Cc1sc(-c2ccc(Cl)cc2)nc1C1C(=O)CC(Cc2ccc(F)cn2)C1=O (stereo not shown) [Compound A12] | 100 |
| Cc1sc(-c2ccc(Cl)cc2)nc1C1C(=O)C/C(=C\C2CCOCC2)C1=O (stereo not shown) [Compound A24] | 100 |
| Cc1cc(-c2ccc(Cl)cc2)nn1C1C(=O)CC(Cc2ccc(F)cn2)C1=O (stereo not shown) [Compound A20] | 70 |

Each molecule was assayed on Echinochloa crus-galli (ECHCG) in the same assay as above. Conditions: rate not printed (columns shifted), evaluated after 13 days, 100=total damage to plant, 0=no damage.
Assay type: in vivo
Experimental: as §1, with “Pre-Emergence” for “Post-Emergence”

| SMILES | Pre-Emergence Activity ECHCG (damage to plant) |
| --- | --- |
| Cc1sc(-c2ccc(C(C)C)cc2)nc1C1C(=O)C/C(=C\C2CCOCC2)C1=O (stereo not shown) [Compound A1] | 50 |
| Cc1sc(-c2ccc(Cl)cc2)nc1C1C(=O)CC(Cc2ccc(F)cn2)C1=O (stereo not shown) [Compound A12] | 100 |
| Cc1sc(-c2ccc(Cl)cc2)nc1C1C(=O)C/C(=C\C2CCOCC2)C1=O (stereo not shown) [Compound A24] | 100 |
| Cc1cc(-c2ccc(Cl)cc2)nn1C1C(=O)CC(Cc2ccc(F)cn2)C1=O (stereo not shown) [Compound A20] | 100 |

Each molecule was assayed on Avena fatua (AVEFA) in the same assay as above. Conditions: rate not printed (columns shifted), evaluated after 13 days, 100=total damage to plant, 0=no damage.
Assay type: in vivo
Experimental: as §1, with “Pre-Emergence” for “Post-Emergence”

| SMILES | Pre-Emergence Activity AVEFA (damage to plant) |
| --- | --- |
| Cc1sc(-c2ccc(C(C)C)cc2)nc1C1C(=O)C/C(=C\C2CCOCC2)C1=O (stereo not shown) [Compound A1] | 0 |
| Cc1sc(-c2ccc(Cl)cc2)nc1C1C(=O)CC(Cc2ccc(F)cn2)C1=O (stereo not shown) [Compound A12] | 90 |
| Cc1sc(-c2ccc(Cl)cc2)nc1C1C(=O)C/C(=C\C2CCOCC2)C1=O (stereo not shown) [Compound A24] | 60 |
| Cc1cc(-c2ccc(Cl)cc2)nn1C1C(=O)CC(Cc2ccc(F)cn2)C1=O (stereo not shown) [Compound A20] | 20 |

The molecules below were run on Alopecurus myosuroides (ALOMY) in the same assay as above. Conditions: rate not printed (columns shifted), evaluated after 13 days, 100=total damage to plant, 0=no damage.
Assay type: in vivo
Experimental: as §1, with “Pre-Emergence” for “Post-Emergence”

| SMILES | Pre-Emergence Activity ALOMY (damage to plant) |
| --- | --- |
| Cc1sc(-c2ccc(C(C)C)cc2)nc1C1C(=O)C/C(=C\C2CCOCC2)C1=O (stereo not shown) [Compound A1] | 10 |
| Cc1sc(-c2ccc(Cl)cc2)nc1C1C(=O)CC(Cc2ccc(F)cn2)C1=O (stereo not shown) [Compound A12] | 100 |
| Cc1sc(-c2ccc(Cl)cc2)nc1C1C(=O)C/C(=C\C2CCOCC2)C1=O (stereo not shown) [Compound A24] | 60 |
| Cc1cc(-c2ccc(Cl)cc2)nn1C1C(=O)CC(Cc2ccc(F)cn2)C1=O (stereo not shown) [Compound A20] | 40 |
